Results taken from ChEMBL document CHEMBL3393060, “Inhibitors of c-Jun N-terminal kinases: an update” (J Med Chem, 2015).

Columns and labels:
[1] = molecular target: Phosphatidylinositol 4,5-bisphosphate 3-kinase catalytic subunit gamma isoform (Homo sapiens, UniProt P48736); assay: Inhibition of PI3Kgamma (unknown origin) by KINOMEScan assay
[2] = molecular target: Casein kinase I isoform delta (Homo sapiens, UniProt P48730); assay: Inhibition of CK1delta (unknown origin) by KINOMEScan assay
[3] = molecular target: MAP kinase-interacting serine/threonine-protein kinase 2 (Homo sapiens, UniProt Q9HBH9); assay: Inhibition of MKNK2 (unknown origin) by KINOMEScan assay
[4] = molecular target: T1, Mitogen-activated protein kinase 10 (Homo sapiens, UniProt P53779); assay: Inhibition of JNK3 (unknown origin) by time-resolved fluorescence assay
[5] = molecular target: Mitogen-activated protein kinase 10 (Rattus norvegicus, UniProt P49187); assay: Inhibition of JNK3-mediated c-jun phosphorylation in rat INS1 cells; type: cell-based
[6] = molecular target: T2, Mitogen-activated protein kinase 8 (Homo sapiens, UniProt P45983); assay: Inhibition of JNK1 (unknown origin) by time-resolved fluorescence assay
[7] = Oral bioavailability in rat; type: ADME, organism-based; settings: in vivo
Rattus norvegicus [8] = species on record: Rattus norvegicus; assay: Ratio of drug level brain to plasma in rat; type: ADME, organism-based
[9] = molecular target: T3, Mitogen-activated protein kinase 9 (Homo sapiens, UniProt P45984); assay: Inhibition of JNK2 (unknown origin) by time-resolved fluorescence assay
[10] = molecular target: Mast/stem cell growth factor receptor Kit (Homo sapiens, UniProt P10721); assay: Inhibition of KIT (unknown origin)
MAP kinase p38 = MAP kinase p38 (Homo sapiens, UniProt O15264+Q15759+Q16539+P53778); assay: Inhibition of p38 (unknown origin); type: protein assay
[11] = molecular target: T2, Mitogen-activated protein kinase 8; assay: Inhibition of JNK1 (unknown origin) by JIP-FP displacement assay
[12] = molecular target: T3, Mitogen-activated protein kinase 9; assay: Inhibition of JNK2 (unknown origin) by JIP-FP displacement assay
[13] = molecular target: T1, Mitogen-activated protein kinase 10; assay: Inhibition of JNK3 (unknown origin) by JIP-FP displacement assay
[14] = molecular target: Leucine-rich repeat serine/threonine-protein kinase 2 (Homo sapiens, UniProt Q5S007, G2019S); assay: Inhibition of LRRK2 G2019S mutant (unknown origin)
[15] = molecular target: T1, Mitogen-activated protein kinase 10; assay: Inhibition of JNK3-mediated c-jun phosphorylation in human A375 cells after 1 hr incubation; type: cell-based, A-375
[16] = molecular target: T3, Mitogen-activated protein kinase 9; assay: Inhibition of JNK2 (unknown origin)
[17] = molecular target: T2, Mitogen-activated protein kinase 8; assay: Inhibition of JNK1 (unknown origin)
Cytochrome P450 2D6 = Cytochrome P450 2D6 (Homo sapiens, UniProt P10635); assay: Inhibition of CYP2D6 (unknown origin); type: ADME
[18] = molecular target: Mast/stem cell growth factor receptor Kit (Homo sapiens, UniProt P10721, V559D); assay: Inhibition of KIT V559D (unknown origin)
Rattus norvegicus [19] = species on record: Rattus norvegicus; assay: Neuroprotective effect against D-amphetamine-induced circling in rats assessed as reduction in behavioral deficits; type: functional
Cytochrome P450 2C19 = Cytochrome P450 2C19 (Homo sapiens, UniProt P33261); assay: Inhibition of CYP2C19 (unknown origin); type: ADME
Cytochrome P450 2B6 = Cytochrome P450 2B6 (Homo sapiens, UniProt P20813); assay: Inhibition of CYP2B6 (unknown origin); type: ADME
Cytochrome P450 2E1 = Cytochrome P450 2E1 (Homo sapiens, UniProt P05181); assay: Inhibition of CYP2E1 (unknown origin); type: ADME
Cytochrome P450 2C9 = Cytochrome P450 2C9 (Homo sapiens, UniProt P11712); assay: Inhibition of CYP2C9 (unknown origin); type: ADME
[20] = molecular target: Non-receptor tyrosine-protein kinase TYK2 (Homo sapiens, UniProt P29597); assay: Inhibition of TYK2 (unknown origin)
Rattus norvegicus [21] = assay: Protective activity in rat model of myocardial ischemia-reperfusion injury assessed as reduction in infarct volume at 5 mg/kg; type: functional
Cytochrome P450 1A2 = Cytochrome P450 1A2 (Homo sapiens, UniProt P05177); assay: Inhibition of CYP1A2 (unknown origin); type: ADME
[22] = Neuroprotective effect against MPP+-induced cell death in primary cultures of mouse mesencephalic dopaminergic neurons […] single dose after 8 hrs; type: functional
Cytochrome P450 2C8 = Cytochrome P450 2C8 (Homo sapiens, UniProt P10632); assay: Inhibition of CYP2C8 (unknown origin); type: ADME
Cytochrome P450 2A6 = Cytochrome P450 2A6 (Homo sapiens, UniProt P11509); assay: Inhibition of CYP2A6 (unknown origin); type: ADME
Cytochrome P450 3A4 = Cytochrome P450 3A4 (Homo sapiens, UniProt P08684); assay: Inhibition of CYP3A4 (unknown origin); type: ADME
[23] = molecular target: Platelet-derived growth factor receptor beta (Homo sapiens, UniProt P09619); assay: Inhibition of PDGFRbeta (unknown origin)
[24] = Clearance in rat at 1 mg/kg, iv and 2 mg/kg, po; type: ADME, organism-based; settings: in vivo
[25] = Oral bioavailability in rat at 2 mg/kg; type: ADME, organism-based; settings: in vivo
[26] = Half life in rat at 1 mg/kg, iv and 2 mg/kg, po; type: ADME, organism-based; settings: in vivo
[27] = molecular target: T1, Mitogen-activated protein kinase 10; assay: Inhibition of JNK3-mediated c-jun phosphorylation in human HeLa cells after 1 hr incubation; type: cell-based
[28] = molecular target: T2, Mitogen-activated protein kinase 8; assay: Inhibition of JNK1 (unknown origin) after 1 hr incubation

T1 sequence (P53779 whole entry): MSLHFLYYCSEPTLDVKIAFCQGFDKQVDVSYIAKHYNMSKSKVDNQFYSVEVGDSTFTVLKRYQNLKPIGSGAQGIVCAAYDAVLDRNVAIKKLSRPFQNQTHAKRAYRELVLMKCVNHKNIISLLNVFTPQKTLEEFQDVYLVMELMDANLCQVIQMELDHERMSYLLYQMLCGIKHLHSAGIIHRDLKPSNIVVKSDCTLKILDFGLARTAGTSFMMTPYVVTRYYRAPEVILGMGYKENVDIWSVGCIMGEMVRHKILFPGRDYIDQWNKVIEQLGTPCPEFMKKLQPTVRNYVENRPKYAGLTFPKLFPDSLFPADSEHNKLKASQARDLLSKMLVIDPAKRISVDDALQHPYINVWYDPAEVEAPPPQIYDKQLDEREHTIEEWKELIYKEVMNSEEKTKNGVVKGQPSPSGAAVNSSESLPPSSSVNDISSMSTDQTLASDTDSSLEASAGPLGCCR
Chain of Mitogen-activated protein kinase 10 (Rattus norvegicus, UniProt P49187) (P49187 whole entry): as the sequence (P53779 whole entry) above, with Q27H, Y32S, I33V, A34V counted along it
Chain of Phosphatidylinositol 4,5-bisphosphate 3-kinase catalytic subunit gamma isoform (P48736 whole entry, canonical isoform): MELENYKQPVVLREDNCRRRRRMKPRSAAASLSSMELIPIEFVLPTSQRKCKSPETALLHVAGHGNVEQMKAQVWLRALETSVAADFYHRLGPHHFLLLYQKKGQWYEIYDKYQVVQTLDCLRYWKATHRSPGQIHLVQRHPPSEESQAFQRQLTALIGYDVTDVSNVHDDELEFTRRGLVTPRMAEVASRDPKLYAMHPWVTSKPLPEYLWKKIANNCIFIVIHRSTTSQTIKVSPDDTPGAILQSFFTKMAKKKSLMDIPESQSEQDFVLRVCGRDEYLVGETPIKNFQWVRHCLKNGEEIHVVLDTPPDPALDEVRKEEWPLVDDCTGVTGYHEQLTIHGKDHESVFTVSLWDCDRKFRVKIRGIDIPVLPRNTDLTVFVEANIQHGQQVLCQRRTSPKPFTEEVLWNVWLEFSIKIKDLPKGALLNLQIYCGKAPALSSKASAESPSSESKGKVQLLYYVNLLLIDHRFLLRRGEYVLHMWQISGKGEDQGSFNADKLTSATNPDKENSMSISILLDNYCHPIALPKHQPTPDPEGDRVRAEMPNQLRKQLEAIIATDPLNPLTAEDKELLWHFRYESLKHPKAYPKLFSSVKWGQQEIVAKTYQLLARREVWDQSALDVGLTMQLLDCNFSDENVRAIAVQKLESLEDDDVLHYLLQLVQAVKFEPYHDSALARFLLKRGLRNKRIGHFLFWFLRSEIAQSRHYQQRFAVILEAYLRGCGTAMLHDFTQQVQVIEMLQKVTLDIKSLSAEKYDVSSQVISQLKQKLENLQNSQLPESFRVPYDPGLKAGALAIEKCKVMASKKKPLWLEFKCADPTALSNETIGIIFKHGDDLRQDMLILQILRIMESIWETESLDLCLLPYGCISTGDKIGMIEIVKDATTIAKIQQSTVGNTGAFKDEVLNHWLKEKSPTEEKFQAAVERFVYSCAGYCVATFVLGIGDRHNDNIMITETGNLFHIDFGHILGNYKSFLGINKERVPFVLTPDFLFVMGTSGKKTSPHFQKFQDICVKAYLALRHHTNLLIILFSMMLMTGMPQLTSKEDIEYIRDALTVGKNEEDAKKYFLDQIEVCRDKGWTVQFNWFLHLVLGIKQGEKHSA
Chain of Mast/stem cell growth factor receptor Kit (Homo sapiens, UniProt P10721) (P10721 whole entry): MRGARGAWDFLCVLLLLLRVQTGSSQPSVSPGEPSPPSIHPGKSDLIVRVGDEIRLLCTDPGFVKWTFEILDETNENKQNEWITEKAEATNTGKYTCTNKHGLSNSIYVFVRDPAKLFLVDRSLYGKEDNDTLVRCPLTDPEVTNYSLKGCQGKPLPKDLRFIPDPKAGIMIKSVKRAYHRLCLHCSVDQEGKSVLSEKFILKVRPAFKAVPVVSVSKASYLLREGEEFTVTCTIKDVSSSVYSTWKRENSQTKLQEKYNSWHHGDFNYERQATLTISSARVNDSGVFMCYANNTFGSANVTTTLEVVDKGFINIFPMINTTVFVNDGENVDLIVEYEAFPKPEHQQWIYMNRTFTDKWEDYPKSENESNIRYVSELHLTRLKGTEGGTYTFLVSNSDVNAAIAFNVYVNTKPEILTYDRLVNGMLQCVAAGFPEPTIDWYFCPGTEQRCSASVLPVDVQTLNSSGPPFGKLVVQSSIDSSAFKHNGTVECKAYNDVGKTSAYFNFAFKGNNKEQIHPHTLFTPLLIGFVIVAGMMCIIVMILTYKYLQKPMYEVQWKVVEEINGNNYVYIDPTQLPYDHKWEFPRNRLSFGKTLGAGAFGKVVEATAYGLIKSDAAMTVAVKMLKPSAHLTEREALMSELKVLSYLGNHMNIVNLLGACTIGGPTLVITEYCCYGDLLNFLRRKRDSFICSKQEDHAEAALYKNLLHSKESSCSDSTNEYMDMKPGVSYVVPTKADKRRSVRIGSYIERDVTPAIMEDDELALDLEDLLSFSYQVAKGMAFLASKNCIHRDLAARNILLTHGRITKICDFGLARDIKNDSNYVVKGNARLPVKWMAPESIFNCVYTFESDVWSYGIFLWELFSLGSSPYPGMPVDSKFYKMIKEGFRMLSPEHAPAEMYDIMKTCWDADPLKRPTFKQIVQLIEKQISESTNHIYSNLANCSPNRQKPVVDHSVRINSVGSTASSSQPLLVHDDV
T3 sequence (P45984 whole entry): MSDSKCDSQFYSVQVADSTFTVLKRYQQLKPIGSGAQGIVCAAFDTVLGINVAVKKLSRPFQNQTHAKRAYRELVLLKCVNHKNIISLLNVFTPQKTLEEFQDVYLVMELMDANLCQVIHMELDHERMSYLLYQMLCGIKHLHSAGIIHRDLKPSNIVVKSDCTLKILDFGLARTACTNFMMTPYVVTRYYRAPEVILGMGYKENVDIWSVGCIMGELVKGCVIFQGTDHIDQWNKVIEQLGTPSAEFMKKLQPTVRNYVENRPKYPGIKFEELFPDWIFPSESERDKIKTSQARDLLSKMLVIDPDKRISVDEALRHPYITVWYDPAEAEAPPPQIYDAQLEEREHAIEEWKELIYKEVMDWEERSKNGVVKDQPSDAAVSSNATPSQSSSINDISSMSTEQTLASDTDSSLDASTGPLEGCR
T2 sequence (P45983 whole entry): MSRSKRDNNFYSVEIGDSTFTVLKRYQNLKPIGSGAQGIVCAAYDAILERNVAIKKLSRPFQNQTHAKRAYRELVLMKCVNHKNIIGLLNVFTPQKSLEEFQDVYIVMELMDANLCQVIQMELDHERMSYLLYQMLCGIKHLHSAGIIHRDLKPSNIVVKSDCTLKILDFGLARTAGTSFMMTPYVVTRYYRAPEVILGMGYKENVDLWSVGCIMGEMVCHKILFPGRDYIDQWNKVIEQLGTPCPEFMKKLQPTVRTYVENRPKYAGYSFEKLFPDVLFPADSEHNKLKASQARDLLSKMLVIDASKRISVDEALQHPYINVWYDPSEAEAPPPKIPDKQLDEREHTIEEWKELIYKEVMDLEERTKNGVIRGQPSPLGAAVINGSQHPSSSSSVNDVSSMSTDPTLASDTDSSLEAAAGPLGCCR
Chain of MAP kinase-interacting serine/threonine-protein kinase 2 (Q9HBH9 whole entry): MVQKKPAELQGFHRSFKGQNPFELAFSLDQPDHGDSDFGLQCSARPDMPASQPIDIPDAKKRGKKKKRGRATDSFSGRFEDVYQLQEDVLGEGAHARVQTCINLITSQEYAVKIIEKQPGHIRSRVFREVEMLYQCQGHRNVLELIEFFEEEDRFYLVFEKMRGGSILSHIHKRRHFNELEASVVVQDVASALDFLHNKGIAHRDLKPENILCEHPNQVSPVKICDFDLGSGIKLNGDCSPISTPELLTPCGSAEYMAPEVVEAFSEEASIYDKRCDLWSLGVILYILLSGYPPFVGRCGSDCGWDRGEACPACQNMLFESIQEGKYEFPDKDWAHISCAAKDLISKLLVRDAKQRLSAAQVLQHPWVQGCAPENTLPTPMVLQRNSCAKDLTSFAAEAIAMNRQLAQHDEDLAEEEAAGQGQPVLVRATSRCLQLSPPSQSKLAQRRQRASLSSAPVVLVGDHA
Chain of Casein kinase I isoform delta (P48730 whole entry, canonical isoform): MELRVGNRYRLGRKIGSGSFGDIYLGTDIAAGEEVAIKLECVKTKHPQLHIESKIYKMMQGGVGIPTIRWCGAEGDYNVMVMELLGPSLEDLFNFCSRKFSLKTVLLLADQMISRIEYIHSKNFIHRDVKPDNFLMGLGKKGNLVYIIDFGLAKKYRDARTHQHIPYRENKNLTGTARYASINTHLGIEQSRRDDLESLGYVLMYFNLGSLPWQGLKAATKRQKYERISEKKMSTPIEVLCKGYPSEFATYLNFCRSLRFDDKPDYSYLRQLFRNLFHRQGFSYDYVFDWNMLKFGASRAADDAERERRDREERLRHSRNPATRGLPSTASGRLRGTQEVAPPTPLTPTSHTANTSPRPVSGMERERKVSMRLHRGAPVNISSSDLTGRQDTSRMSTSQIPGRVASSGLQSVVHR
Chain of Cytochrome P450 2D6 (P10635 whole entry): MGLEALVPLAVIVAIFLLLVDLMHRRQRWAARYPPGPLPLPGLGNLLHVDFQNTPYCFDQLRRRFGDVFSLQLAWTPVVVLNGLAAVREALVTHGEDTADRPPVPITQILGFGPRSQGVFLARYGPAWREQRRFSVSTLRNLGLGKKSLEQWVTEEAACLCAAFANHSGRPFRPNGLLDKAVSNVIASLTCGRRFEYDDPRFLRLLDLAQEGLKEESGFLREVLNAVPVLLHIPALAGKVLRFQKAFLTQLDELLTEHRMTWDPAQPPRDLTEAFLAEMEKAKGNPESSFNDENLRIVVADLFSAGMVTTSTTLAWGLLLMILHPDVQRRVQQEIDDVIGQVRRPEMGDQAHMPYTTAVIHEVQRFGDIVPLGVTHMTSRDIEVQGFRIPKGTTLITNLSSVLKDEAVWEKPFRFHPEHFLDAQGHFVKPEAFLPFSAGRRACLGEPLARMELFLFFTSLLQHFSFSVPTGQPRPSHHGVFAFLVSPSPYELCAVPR

Which results are given for `O/N=C1/c2ccccc2-c2nc3ccccc3nc21`?
Kd [1]: 470 nM; Kd [2]: 380 nM; Kd [3]: 920 nM

What does the source list for `COc1cc(N2CCOCC2)ccc1Nc1ncc(Cl)c(Nc2ccccc2C(N)=O)n1`?
IC50 [4]: 0.8 nM; IC50 [5]: 3 nM; IC50 [6]: 3 nM; bioavailability [7]: 30%; BPR (Rattus norvegicus [8]): 17%

What does the source list for `Cn1cc(-c2ccc3cnc(Nc4ccc(-n5cnc(N6CCOCC6)n5)cc4)nc3c2)cn1`?
IC50 [5]: 310 nM; IC50 [9]: 90 nM

For `COc1cc(NC(=O)c2cccc(-n3cc(NC(=O)Nc4cccc(C)c4)cn3)c2)cc(OC)c1OC`, which Kd [10] is on record?
The Kd was greater than 20000 nM.

What about the IC50 [5] of the same compound?
Its IC50 is 1300 nM.

What about the IC50 (MAP kinase p38) of the same compound?
Its IC50 is greater than 20000 nM.

And the IC50 [6]?
The IC50 was 17 nM.

For `O=C(NCCN1CCOCC1)c1ccnc(-n2ncc3cc(Nc4ccccc4Cl)ccc32)c1`, which Kd [10] is on record?
The Kd was less than 1000 nM.

Which results are given for `Cn1cc(-c2c[nH]c3ncc([C@H]4CC[C@H](N5CCCOCC5)CC4)cc23)cn1`?
IC50 [6]: 166 nM; IC50 [9]: 339 nM

Which IC50 [6] does the source give for `NC(=O)c1ccccc1Nc1nc(Nc2ccc(N3CCCC3=O)cc2)ncc1Cl` here?
The IC50 was 0.24 nM.

For `COc1ccc2c(c1)OCC(C(=O)NC(=O)N(CC(=O)NCCCCCCNC(=O)c1ccc(-c3n[nH]c4ccccc34)cc1)CC(C)C)O2` (stereo not given), which IC50 [11] is on record?
Its IC50 is 109 nM.

And the IC50 [5]?
The IC50 was 2800 nM.

What about the IC50 [12] of the same compound?
Its IC50 is 336 nM.

What about the IC50 [13] of the same compound?
Its IC50 is 12 nM.

And the IC50 [14]?
Its IC50 is 99 nM.

Which results are given for `Fc1cc(-c2cc[nH]/c(=N/c3ccc(-n4cnc(N5CCOCC5)n4)cc3)n2)cc(N2CCOCC2)c1`?
IC50 [5]: 54 nM; IC50 (MAP kinase p38): > 20000 nM; IC50 [9]: 99 nM

For `CN(C)C/C=C/C(=O)Nc1ccc(C(=O)Nc2cccc(Nc3nccc(-c4cccnc4)n3)c2)cc1`, which IC50 [15] is on record?
Its IC50 is 2400 nM.

Which Kd [16] does the source give for `O=C(O/N=C1/c2ccccc2-c2nc3ccccc3nc21)c1ccco1` here?
Its Kd is 290 nM.

And the Kd [1]?
Its Kd is 430 nM.

And the Kd [2]?
The Kd was 560 nM.

What about the Kd [3] of the same compound?
The Kd was 1200 nM.

And the Kd [17]?
The Kd was 240 nM.

Which results are given for `CN(C)c1ccc(-c2cnc3[nH]cc(-c4cn[nH]c4)c3c2)cc1`?
IC50 [4]: 32 nM; IC50 [6]: 101 nM; IC50 [9]: 59 nM

What does the source list for `Cc1ccc(-c2ncn(-c3ccc(Nc4nccc(-c5cccc(N6CCOCC6)c5)n4)cc3)n2)cn1`?
IC50 (Cytochrome P450 2D6): > 50000 nM; Kd [18]: < 1000 nM; IC50 [4]: 159 nM; inhibition (INH) (Rattus norvegicus [19]): 90%; Kd [10]: > 20000 nM; IC50 (Cytochrome P450 2C19): > 50000 nM; IC50 (Cytochrome P450 2B6): > 50000 nM; IC50 (Cytochrome P450 2E1): > 50000 nM; IC50 (Cytochrome P450 2C9): > 50000 nM; Kd [20]: < 1000 nM; inhibition in vivo at 5 mg/kg (Rattus norvegicus [21]): 34%; IC50 [5]: 216 nM; IC50 (Cytochrome P450 1A2): > 50000 nM; IC50 (MAP kinase p38): > 20000 nM; Activity [22]: >90%; IC50 [6]: 67 nM; IC50 (Cytochrome P450 2C8): > 50000 nM; IC50 [9]: 283 nM; IC50 (Cytochrome P450 2A6): > 50000 nM; IC50 (Cytochrome P450 3A4): > 50000 nM; Kd [23]: < 1000 nM

Which IC50 [4] does the source give for `Cn1cc(-c2c[nH]c3ncc([C@H]4CC[C@H](N5CCOCC5)CC4)cc23)cn1` here?
Its IC50 is 85 nM.

And the IC50 [6]?
The IC50 was 74 nM.

And the IC50 [9]?
The IC50 was 123 nM.

With `COc1ccc(C(=O)O/N=C2/c3ccccc3-c3nc4ccccc4nc32)cc1OC` as the compound, how does the Kd [16] read?
Its Kd is 280 nM.

And the Kd [1]?
Its Kd is 12000 nM.

And the Kd [2]?
Its Kd is 5700 nM.

What about the Kd [3] of the same compound?
The Kd was 10000 nM.

What about the Kd [17] of the same compound?
Its Kd is 270 nM.

For `O=C(NCCN1CCN(C2CCC2)CC1)c1cccc(-n2ncc3cc(Nc4ccccc4Cl)ccc32)c1`, which clearance [24] is on record?
The clearance was 25 mL/min/kg.

And the bioavailability [25]?
The bioavailability was 27%.

And the IC50 [4]?
Its IC50 is 40 nM.

What about the IC50 [6] of the same compound?
Its IC50 is 970 nM.

And the half-life [26]?
Its half-life is 3.3 min.

Which IC50 [27] does the source give for `CN(C)C/C=C/C(=O)Nc1cccc(C(=O)Nc2ccc(Nc3nccc(-c4c(-c5ccccc5)nn5ccccc45)n3)cc2)c1` here?
The IC50 was 48 nM.

What about the IC50 [15] of the same compound?
The IC50 was 9 nM.

What about the IC50 [28] of the same compound?
The IC50 was 1.3 nM.

For `CN(C)C/C=C/C(=O)Nc1cccc(C(=O)Nc2ccc(Nc3nccc(-c4cccnc4)n3)cc2)c1`, which IC50 [28] is on record?
Its IC50 is 1.5 nM.

With `CS(=O)(=O)Nc1ccc(-c2ccnc(Nc3ccc(-n4ccnn4)cc3)n2)cc1` as the compound, how does the IC50 [5] read?
The IC50 was 210 nM.

What about the IC50 (MAP kinase p38) of the same compound?
Its IC50 is greater than 20000 nM.

With `NC(=O)c1ccccc1Nc1nc(Nc2ccc(N3CCOCC3)cc2)ncc1Cl` as the compound, how does the IC50 [4] read?
Its IC50 is 0.3 nM.

What about the IC50 [6] of the same compound?
The IC50 was 1 nM.

For `COc1ccc(CC(=O)Nc2cc3cc(-c4cnn(C)c4)ccc3cn2)cc1`, which IC50 [6] is on record?
The IC50 was 0.8 nM.

Which results are given for `COc1cc(NC(=O)c2cccc(-n3cc(NC(=O)Nc4ccccc4)cn3)c2)cc(OC)c1OC`?
IC50 [5]: 1200 nM; IC50 (MAP kinase p38): 3700 nM
